The source of these data is PubChem BioAssay (NCI).

Test systems include IGROV1 ovarian; HL-60(TB) leukemia; HCT-15 colon; MDA-MB-231 breast; HCC-2998 colon; NCI-H460 lung; SF-539 CNS; UACC-62 melanoma; DU-145 prostate; COLO 205 colon; MOLT-4 leukemia; SNB-19 CNS; SNB-75 CNS.
Common to all, as to experiment: NCI tumour cell line growth inhibition, 48 h

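How tested: cells in 96-well plates exposed to compound for 48 hours at five concentrations. Definition used: TGI = concentration required for complete inhibition of growth.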

Take `CSc1ncc2c(C#N)c3ccccn3c(=O)c2n1`: the TGI with IGROV1 ovarian, with HL-60(TB) leukemia, in the test on HCT-15 colon, with MDA-MB-231 breast, with HCC-2998 colon and in the test on NCI-H460 lung was over 100 µM each time. For the same compound, the TGI in the test on SF-539 CNS, in the test on UACC-62 melanoma, in the test on DU-145 prostate, in the test with COLO 205 colon, in the test with MOLT-4 leukemia and in the test on SNB-19 CNS was over 100 µM in each case. This compound also had a TGI in the test on SNB-75 CNS of over 100 µM.
For the compound `CC(C)CNC(=O)c1c(NC(=O)c2ccccc2)sc2[nH]c(=O)n(-c3ccccc3)c(=O)c12`, the TGI with IGROV1 ovarian was over 100 µM; in the test with HL-60(TB) leukemia it was over 100 µM; in the test on HCT-15 colon, over 100 µM; in the test on MDA-MB-231 breast it was 52.6 µM; in the test on HCC-2998 colon, over 100 µM; with NCI-H460 lung it was over 100 µM. For the same compound, the TGI is over 84 µM in the test on SF-539 CNS; over 100 µM in the test on UACC-62 melanoma; over 100 µM in the test with DU-145 prostate; over 100 µM in the test with COLO 205 colon; over 100 µM in the test with MOLT-4 leukemia; 75.8 µM in the test with SNB-19 CNS. Besides, the TGI in the test on SNB-75 CNS stood at 48.3 µM.
In the case of `CCNC(=S)Nc1c(C#N)c2n(c1C(=O)OCC)CCCCC2`, the TGI in the test with IGROV1 ovarian, in the test on HL-60(TB) leukemia, in the test with HCT-15 colon, in the test on MDA-MB-231 breast, in the test with HCC-2998 colon and in the test on NCI-H460 lung was over 100 µM in each case. The TGI in the test with SF-539 CNS, in the test with UACC-62 melanoma, with DU-145 prostate, with COLO 205 colon, in the test with MOLT-4 leukemia and in the test on SNB-19 CNS was over 100 µM each time. Moreover, in the test with SNB-75 CNS, the TGI is over 100 µM.
Take `Nc1ncnc2c1ccn2CC=C(CO)CO`: the TGI in the test with IGROV1 ovarian, in the test with HL-60(TB) leukemia, in the test on HCT-15 colon, with MDA-MB-231 breast, in the test with HCC-2998 colon and in the test with NCI-H460 lung was over 100 µM in each case. The TGI with SF-539 CNS, with UACC-62 melanoma, with DU-145 prostate, in the test with MOLT-4 leukemia, in the test on SNB-19 CNS and in the test on SNB-75 CNS was over 100 µM each time.
In the case of `c1ccc(CNCCCNCCCCNCCCNCc2ccccc2)cc1`, the TGI in the test on IGROV1 ovarian is 5.58 µM; with HL-60(TB) leukemia it was 4 µM; in the test on HCT-15 colon it was 33.8 µM; with MDA-MB-231 breast it was 22.1 µM; in the test on HCC-2998 colon, 15.2 µM; in the test on NCI-H460 lung, 19.1 µM. In addition, the TGI with SF-539 CNS amounted to 3.72 µM; with UACC-62 melanoma, 21.1 µM; with DU-145 prostate it was 25.4 µM; in the test with MOLT-4 leukemia, 2.74 µM; with SNB-19 CNS it was 27.4 µM; in the test on SNB-75 CNS it was 21.7 µM.
As to `N=C1/C(=C/c2ccccc2)C(=O)N=C2SC=NN12`, the TGI in the test with IGROV1 ovarian, with HL-60(TB) leukemia, in the test with HCT-15 colon, in the test with MDA-MB-231 breast, in the test with HCC-2998 colon and with NCI-H460 lung was over 100 µM throughout. Further, the TGI in the test on SF-539 CNS is 88.5 µM; in the test on UACC-62 melanoma, over 100 µM; in the test with DU-145 prostate it was over 100 µM; with COLO 205 colon, over 100 µM; in the test on MOLT-4 leukemia, over 100 µM; in the test with SNB-19 CNS, over 100 µM. In the test with SNB-75 CNS, this compound gave a TGI of over 100 µM.
`[O-]/N=N\c1on[n+](CCc2ccccc2)c1Cc1c(/N=N/[O-])on[n+]1CCc1ccccc1`: the TGI in the test on IGROV1 ovarian was 70 µM; with HL-60(TB) leukemia it was over 100 µM; with HCT-15 colon, over 100 µM; in the test on MDA-MB-231 breast, 88.6 µM; in the test on HCC-2998 colon it was over 100 µM; in the test on NCI-H460 lung, over 100 µM. The TGI with SF-539 CNS is 37.1 µM; in the test with UACC-62 melanoma, over 100 µM; in the test on DU-145 prostate, over 100 µM; in the test on COLO 205 colon it was over 100 µM; with MOLT-4 leukemia it was over 100 µM; in the test with SNB-19 CNS, 93.2 µM. Besides, the TGI in the test on SNB-75 CNS was found to be 40.2 µM.
For the compound `CC(=O)c1c2c(cc3c1CC1(C3)Cc3ccc4c(c3C1=O)CCC4)CCC2` (stereo not given), the TGI with IGROV1 ovarian is over 100 µM; in the test on HL-60(TB) leukemia, 15 µM; in the test with HCT-15 colon, over 100 µM; in the test with MDA-MB-231 breast, over 100 µM; with HCC-2998 colon it was over 100 µM; in the test with NCI-H460 lung it was over 100 µM. The TGI was over 100 µM in the test on SF-539 CNS; over 100 µM in the test on UACC-62 melanoma; over 100 µM in the test on DU-145 prostate; 39.3 µM in the test with COLO 205 colon; over 100 µM in the test on MOLT-4 leukemia; over 100 µM with SNB-19 CNS. In the test on SNB-75 CNS, this compound displayed a TGI of over 100 µM.
For the compound `COC(=O)CCN1CCN(CCO)CC1C` (stereo not given), the TGI with IGROV1 ovarian, in the test with HL-60(TB) leukemia, in the test on HCT-15 colon, with MDA-MB-231 breast, in the test with HCC-2998 colon and with NCI-H460 lung was over 10 µM throughout. The TGI in the test with SF-539 CNS, with UACC-62 melanoma, in the test with DU-145 prostate, with COLO 205 colon, with MOLT-4 leukemia and with SNB-19 CNS was over 10 µM in each case. Also, in the test on SNB-75 CNS, the TGI is over 10 µM.
As to `CC1(C)CC(=O)C(CC2C(=O)c3ccccc3C2=O)C(=O)C1C(=O)C(=O)Nc1cccc2ccc(O)cc12` (stereo not given), the TGI in the test on IGROV1 ovarian, in the test with HL-60(TB) leukemia, with HCT-15 colon, in the test with MDA-MB-231 breast, with HCC-2998 colon and in the test on NCI-H460 lung was over 100 µM each time. Also, the TGI in the test with SF-539 CNS, with UACC-62 melanoma, in the test with DU-145 prostate, in the test on COLO 205 colon, with MOLT-4 leukemia and with SNB-19 CNS was over 100 µM throughout. In the test on SNB-75 CNS, this compound showed a TGI of over 100 µM.
`COC(=O)c1ccc(-n2c(C)nc(=O)c(-c3ccccc3)c2C)cc1`: the TGI in the test with IGROV1 ovarian, in the test with HL-60(TB) leukemia, in the test on HCT-15 colon, in the test with MDA-MB-231 breast, in the test with HCC-2998 colon and with NCI-H460 lung was over 100 µM each time. For the same compound, the TGI with SF-539 CNS, with DU-145 prostate, with COLO 205 colon, in the test with MOLT-4 leukemia, in the test on SNB-19 CNS and with SNB-75 CNS was over 100 µM each time.
